Measured values reported in patent US20230250436A1, “NUCLEIC ACID THAT INTERACTS WITH A RECEPTOR FOR ENDOCRINE DISRUPTING CHEMICALS AND USE THEREOF” (KUMIAI CHEMICAL INDUSTRY CO., LTD., priority 2020, published 2023).

System: juvenile hormone receptor of Daphnia magna (DampaMET)
Test: Yeast reporter (β-galactosidase) assay, transformants with DampaMET and DampaSRC
Assay type: cell-based
Procedure: Subsequently, a reporter plasmid prepared by inserting the nucleotide sequence shown in SEQ ID NO: 2 into a yeast comprising the DampaMET plasmid and the DampaSRC plasmid introduced thereinto by the lithium acetate method. Thus, Yeast 1 of Invention was obtained. In the same manner, Yeasts 2 to 38 of Invention each comprising the response element according to the present invention and Control yeasts 1 to 9 shown in Table 3 were prepared.
With the use of the Yeast 1 of Invention, reporter activity to methyl farnesoate as a juvenile hormone substance was measured. At the outset, the Yeast 1 of Invention was subjected to pre-culture at 30° C. for 18 hours using the pre-culture medium shown in Table 1 until the turbidity (O.D. 595) of the pre-culture medium reached approximately 0.1. The solution of the pre-cultured cells (10 μl) and 1 μl of the solution of methyl farnesoate diluted to various concentrations with dimethyl sulfoxide (DMSO) were mixed with 90 μl of the main culture solution shown in Table 4 in a 96-well plate, and the mixture was subjected to static culture at 30° C. for 18 hours to prepare a reaction solution. The resultant was designated as a test group.
A reaction solution prepared with the addition of 1 μl of DMSO instead of a diluted methyl farnesoate solution was designated as a control group. Fractions of 10 μl each were collected from the reaction solutions and dispensed into each well of another 96-well plate. Thereafter, 100 μl of an assay reagent comprising a lytic solution (Z buffer: 60 mM Na2HPO4, 40 mM NaH2PO4, 1 mM MgCl2, 10 mM KCl, 2 mM dithiothreitol, 0.20% N-lauroylsarcosine sodium salt) mixed with 1 mg/ml ONPG (orthonitrophenylgalactopyranoside) was dispensed into each well, and the reaction was allowed to proceed at 37° C. for 30 minutes. Thereafter, the absorbance (O.D. 405) and the turbidity (O.D. 595) of the reaction solutions were assayed at the wavelength of 405 nm using a microplate reader (tradename: iMark microplate reader, Bio-Rad Laboratories). The increase of induction was calculated in accordance with the following formula.
The increase of induction is described in Ito-Harashima S et al., FEBS Open Bio., 7 (7): pp. 995-1008, 2017. When the increase of induction is positive, the transformant is determined to have reporter activity to the substance tested. The test was performed once or repeated 3 times, 5 times, or 15 times, and the average increase of induction was calculated. The control yeast 1 was treated in the same manner and reporter activity was compared.
In the same manner as in Test Example 1, the Yeasts 2, 3, 4, 5, 6, 7, 9, 10, 11, 12, 13, 14, 15, 16, 17, 18, 19, and 20 of Invention were subjected to assays of reporter activity to methyl farnesoate. The test was performed in accordance with Test Example 1, and reporter activity of the yeasts indicated above was compared with that of the control yeasts 2, 3, and 4.
With the use of the control yeast 7 comprising a different nucleotide sequence of the C-box (CACGCG) in the response element, the control yeast 8 comprising a different nucleotide sequence of the E-box (CACGTG), and the control yeast 9 comprising different nucleotide sequences of the C-box and the E-box from the relevant nucleotide sequences of the Yeast 4 of Invention, the influence of a core sequence on reporter activity to methyl farnesoate was evaluated. The test was performed in accordance with Test Example 1.
With the use of the Yeast 4 and the Yeast 8 of the present Invention, reporter activity to sex hormones; i.e., 17β-estradiol and testosterone, insect juvenile hormones; i.e., juvenile hormone III, and chemical substances suspected of having endocrine disrupting actions, such as 4-nonyl phenol, bisphenol A, 1,1,1-trichloro-2,2-bis(4-chlorophenyl)ethane (DDT), 2,2-bis(4-chlorophenyl)-1,1-dichloroethylene (DDE), and dieldrin, was assayed. The test was performed in accordance with Test Example 1. All the test substances were treated at 10 μM. […]

Compound: COC(=O)/C=C(\C)CC/C=C(\C)CCC=C(C)C [methyl farnesoate]
- increase of induction (Control yeast 1 (cacgcggcggcacgtg x1), 100 pM): 0.01
- increase of induction (Control yeast 1 (cacgcggcggcacgtg x1), 1 nM): 0.00
- increase of induction (Control yeast 2 (cacgcggcggcacgtg x2), 10 nM): −0.29
- increase of induction (Control yeast 2 (cacgcggcggcacgtg x2), 100 nM): −0.27
- increase of induction (Control yeast 2 (cacgcggcggcacgtg x2), 1 μM): −0.34
- increase of induction (Control yeast 2 (cacgcggcggcacgtg x2), 10 μM): −0.21
- increase of induction (Control yeast 2 (cacgcggcggcacgtg x2), 100 μM): −0.14
- increase of induction (Control yeast 3 (cacgcggcggcacgtg x3), 10 nM): −0.12
- increase of induction (Control yeast 3 (cacgcggcggcacgtg x3), 100 nM): −0.21
- increase of induction (Control yeast 3 (cacgcggcggcacgtg x3), 1 μM): −0.27
- increase of induction (Control yeast 3 (cacgcggcggcacgtg x3), 10 μM): −0.17
- increase of induction (Control yeast 3 (cacgcggcggcacgtg x3), 100 μM): −0.17
- increase of induction (Control yeast 4 (cacgcggcggcacgtg x4), 10 nM): −0.84
- increase of induction (Control yeast 4 (cacgcggcggcacgtg x4), 100 nM): −1.49
- increase of induction (Control yeast 4 (cacgcggcggcacgtg x4), 1 μM): −1.82
- increase of induction (Control yeast 4 (cacgcggcggcacgtg x4), 10 μM): −1.05
- increase of induction (Control yeast 4 (cacgcggcggcacgtg x4), 100 μM): −2.06
- increase of induction (Control yeast 7 (SEQ ID NO: 25 x4, different C-box), 100 nM): −0.42
- increase of induction (Control yeast 7 (SEQ ID NO: 25 x4, different C-box), 10 μM): −0.12
- increase of induction (Control yeast 8 (SEQ ID NO: 28 x4, different E-box), 100 nM): 0.00
- increase of induction (Control yeast 8 (SEQ ID NO: 28 x4, different E-box), 10 μM): −0.02
- increase of induction (Control yeast 9 (SEQ ID NO: 31 x4, different C-box and E-box), 100 nM): −0.42
- increase of induction (Control yeast 9 (SEQ ID NO: 31 x4, different C-box and E-box), 10 μM): −0.12
- increase of induction (Yeast 1 of Invention (SEQ ID NO: 2 x1), 100 pM): 0.10
- increase of induction (Yeast 1 of Invention (SEQ ID NO: 2 x1), 1 nM): 0.08
- increase of induction (Yeast 2 of Invention (SEQ ID NO: 2 x2), 10 nM): 0.54
- increase of induction (Yeast 2 of Invention (SEQ ID NO: 2 x2), 100 nM): 1.26
- increase of induction (Yeast 2 of Invention (SEQ ID NO: 2 x2), 1 μM): 1.45
- increase of induction (Yeast 2 of Invention (SEQ ID NO: 2 x2), 10 μM): 1.64
- increase of induction (Yeast 2 of Invention (SEQ ID NO: 2 x2), 100 μM): 1.57
- increase of induction (Yeast 3 of Invention (SEQ ID NO: 2 x3), 10 nM): 2.05
- increase of induction (Yeast 3 of Invention (SEQ ID NO: 2 x3), 100 nM): 4.35
- increase of induction (Yeast 3 of Invention (SEQ ID NO: 2 x3), 1 μM): 4.45
- increase of induction (Yeast 3 of Invention (SEQ ID NO: 2 x3), 10 μM): 4.07
- increase of induction (Yeast 3 of Invention (SEQ ID NO: 2 x3), 100 μM): 4.29
- increase of induction (Yeast 4 of Invention (SEQ ID NO: 2 x4), 10 nM, Test Example 2): 5.13
- increase of induction (Yeast 4 of Invention (SEQ ID NO: 2 x4), 100 nM, Test Example 2): 7.55
- increase of induction (Yeast 4 of Invention (SEQ ID NO: 2 x4), 100 nM, Test Example 3): 0.42
- increase of induction (Yeast 4 of Invention (SEQ ID NO: 2 x4), 1 μM, Test Example 2): 7.12
- increase of induction (Yeast 4 of Invention (SEQ ID NO: 2 x4), 10 μM, Test Example 2): 7.44
- increase of induction (Yeast 4 of Invention (SEQ ID NO: 2 x4), 10 μM, Test Example 3): 0.51
- increase of induction (Yeast 4 of Invention (SEQ ID NO: 2 x4), 100 μM, Test Example 2): 7.47
- increase of induction (Yeast 5 of Invention (SEQ ID NO: 2 x5), 10 nM): 1.33
- increase of induction (Yeast 5 of Invention (SEQ ID NO: 2 x5), 100 nM): 3.29
- increase of induction (Yeast 5 of Invention (SEQ ID NO: 2 x5), 1 μM): 3.72
- increase of induction (Yeast 5 of Invention (SEQ ID NO: 2 x5), 10 μM): 3.76
- increase of induction (Yeast 5 of Invention (SEQ ID NO: 2 x5), 100 μM): 4.05
- increase of induction (Yeast 6 of Invention (SEQ ID NO: 5 x3), 10 nM): 0.33
- increase of induction (Yeast 6 of Invention (SEQ ID NO: 5 x3), 100 nM): 1.19
- increase of induction (Yeast 6 of Invention (SEQ ID NO: 5 x3), 1 μM): 1.18
- increase of induction (Yeast 6 of Invention (SEQ ID NO: 5 x3), 10 μM): 1.33
- increase of induction (Yeast 6 of Invention (SEQ ID NO: 5 x3), 100 μM): 1.33
- increase of induction (Yeast 7 of Invention (SEQ ID NO: 8 x3), 10 nM): 0.06
- increase of induction (Yeast 7 of Invention (SEQ ID NO: 8 x3), 100 nM): 0.26
- increase of induction (Yeast 7 of Invention (SEQ ID NO: 8 x3), 1 μM): 0.32
- increase of induction (Yeast 7 of Invention (SEQ ID NO: 8 x3), 10 μM): 0.36
- increase of induction (Yeast 7 of Invention (SEQ ID NO: 8 x3), 100 μM): 0.34
- increase of induction (Yeast 9 of Invention (SEQ ID NO: 34 x1), 100 nM): 0.19
- increase of induction (Yeast 9 of Invention (SEQ ID NO: 34 x1), 10 μM): 0.16
- increase of induction (Yeast 10 of Invention (SEQ ID NO: 34 x2), 100 nM): 0.08
- increase of induction (Yeast 10 of Invention (SEQ ID NO: 34 x2), 10 μM): 0.20
- increase of induction (Yeast 11 of Invention (SEQ ID NO: 34 x3), 100 nM): 0.22
- increase of induction (Yeast 11 of Invention (SEQ ID NO: 34 x3), 10 μM): 0.24
- increase of induction (Yeast 12 of Invention (SEQ ID NO: 34 x4), 100 nM): 1.43
- increase of induction (Yeast 12 of Invention (SEQ ID NO: 34 x4), 10 μM): 2.55
- increase of induction (Yeast 13 of Invention (SEQ ID NO: 34 x5), 10 μM): 0.09
- increase of induction (Yeast 14 of Invention (SEQ ID NO: 8 x1), 10 μM): 0.09
- increase of induction (Yeast 15 of Invention (SEQ ID NO: 8 x2), 100 nM): 0.09
- increase of induction (Yeast 15 of Invention (SEQ ID NO: 8 x2), 10 μM): 0.16
- increase of induction (Yeast 16 of Invention (SEQ ID NO: 8 x4), 100 nM): 0.65
- increase of induction (Yeast 16 of Invention (SEQ ID NO: 8 x4), 10 μM): 1.32
- increase of induction (Yeast 17 of Invention (SEQ ID NO: 37 x1), 100 nM): 0.06
- increase of induction (Yeast 17 of Invention (SEQ ID NO: 37 x1), 10 μM): 0.09
- increase of induction (Yeast 18 of Invention (SEQ ID NO: 37 x2), 100 nM): 0.10
- increase of induction (Yeast 19 of Invention (SEQ ID NO: 37 x3), 100 nM): 1.53
- increase of induction (Yeast 19 of Invention (SEQ ID NO: 37 x3), 10 μM): 2.27
- increase of induction (Yeast 20 of Invention (SEQ ID NO: 37 x4), 100 nM): 1.55
- increase of induction (Yeast 20 of Invention (SEQ ID NO: 37 x4), 10 μM): 1.85
- increase of induction (Yeast 25 of Invention (SEQ ID NO: 43 x1), 100 nM): 0.06
- increase of induction (Yeast 25 of Invention (SEQ ID NO: 43 x1), 10 μM): 0.15
- increase of induction (Yeast 26 of Invention (SEQ ID NO: 43 x2), 100 nM): 0.35
- increase of induction (Yeast 26 of Invention (SEQ ID NO: 43 x2), 10 μM): 0.38
- increase of induction (Yeast 27 of Invention (SEQ ID NO: 43 x3), 100 nM): 0.03
- increase of induction (Yeast 27 of Invention (SEQ ID NO: 43 x3), 10 μM): 0.64
- increase of induction (Yeast 28 of Invention (SEQ ID NO: 43 x4), 100 nM): 1.87
- increase of induction (Yeast 28 of Invention (SEQ ID NO: 43 x4), 10 μM): 2.51
- increase of induction (Yeast 29 of Invention (SEQ ID NO: 46 x1), 100 nM): 0.07
- increase of induction (Yeast 29 of Invention (SEQ ID NO: 46 x1), 10 μM): 0.07
- increase of induction (Yeast 30 of Invention (SEQ ID NO: 46 x2), 100 nM): 0.16
- increase of induction (Yeast 30 of Invention (SEQ ID NO: 46 x2), 10 μM): 0.07
- increase of induction (Yeast 31 of Invention (SEQ ID NO: 46 x3), 100 nM): 0.09
- increase of induction (Yeast 31 of Invention (SEQ ID NO: 46 x3), 10 μM): 0.23
- increase of induction (Yeast 32 of Invention (SEQ ID NO: 49 x1), 100 nM): 0.11
- increase of induction (Yeast 32 of Invention (SEQ ID NO: 49 x1), 10 μM): 0.31
- increase of induction (Yeast 33 of Invention (SEQ ID NO: 49 x2), 100 nM): 0.42
- increase of induction (Yeast 33 of Invention (SEQ ID NO: 49 x2), 10 μM): 0.22
- increase of induction (Yeast 34 of Invention (SEQ ID NO: 49 x3), 100 nM): 0.66
- increase of induction (Yeast 34 of Invention (SEQ ID NO: 49 x3), 10 μM): 2.15
- increase of induction (Yeast 35 of Invention (SEQ ID NO: 49 x4), 100 nM): 1.44
- increase of induction (Yeast 35 of Invention (SEQ ID NO: 49 x4), 10 μM): 1.05
